Assay results as given in patent US10201565B2, “Gas conditioning” (EndoSAT NV, priority 2010, dated 2019).
Converted amounts (≈) assume the structure as drawn. “And” between values parts separate entries of the source, which are not always exact repeats. Identical values can stand only once.

Experiments:
[1] = cited from earlier work; for solubilities: unit inferred
adhesion formation [2] = assay: open abdomen for 60 min with gas flow deep in the pelvis, adhesions; assay type: in vivo; details: gas flow of 1 l/min deep in the pelvis; control group with a lesion only
human patients = assay: clinical trials of laparoscopy with conditioned pneumoperitoneum; assay type: in vivo; details: first trial, deep endometriosis surgery; trial group also 5 mg dexamethasone and hyalobarrier gel, humidification, cooling 30-32° C.
Description: In a further set of trials, human patients were treated operatively by laparoscopy using a pneumoperitoneum with 86% CO2, 10% of N2O and 4% of O2 in combination with full humidification and with a temperature maintained at 31° C. to 32° C. when entering the patient (conditioned group). Furthermore the peritoneal cavity was cooled to 30-32° C. using sprinkling of 2 ml/min of saline at room temperature and rinsing was performed using slightly heparinised saline. A comparison was made with a standard treatment, whereby a pneumoperitoneum with 100% CO2 was used (non-conditioned group). Flow rates were between 3 and 10 liter/min. In a first trial, patients were undergoing deep endometriosis surgery. The trial group received in addition 5 mg of dexamethasone and a hyalobarrier gel at the end of the procedure. […] A number of parameters were monitored such as postoperative pain, time to first flatus and time to first stools, and the CO2 resorbtion during pneumoperitoneum. […] In both trials CO2 resorbtion during surgery, postoperative pain assessed by VAS scales and pain killer intake and time to first flatus and time to first stools were monitored.
In both trials post operative pain was evaluated at 3 hours, 12 hours and daily for 4 days after surgery using a VAS scale (Visual Analog Pain Scale) and using the amount of pain killer intake. […]

adhesion formation [3] = details: laparoscopic mouse model, background; cited from earlier work
adhesion formation [4] = details: 60 min pneumoperitoneum, 15 mmHg, humidified, 37° C.; scored one week later; average of four sites; listed as pure CO2

SMILES	solubility in water [1]	solubilities [1]	adhesions after 60 min open abdomen (adhesion formation [2])	adhesion formation checked by repeat laparoscopy (human patients)	adhesion formation (adhesion formation [3])	quantitative adhesion score (proportion of lesion covered by adhesions) (adhesion formation [4])	total adhesion score (sum of extent, type, tenacity) (adhesion formation [4])
O=O [Oxygen, oxygen]	39.1 µg/mL (≈ 1.22 mM)	0.0232 g/L	–	–	–	–	–
[N-]=[N+]=O [N2O, nitrous oxide]	1500 µg/mL (≈ 34.1 mM)	1.5 g/L	–	–	–	–	–
O=C=O [CO2, carbon dioxide]	1450 µg/mL (≈ 32.9 mM)	1.45 g/L	decrease of these adhesions	severe adhesions	increase adhesions five fold	70±10% and 74±9% and 77±9%	30±4 and 31±4 and 32±4
